Experiments:
[1] = target: T1, Kinase suppressor of Ras 1 (Homo sapiens) (UniProt Q8IVT5); experiment: Inhibition of KSR1 ACT labeling site harbouring SKNVFYDNGK in human A-375 cells at 0.5 uM by KiNativ Profiling analysis relative to control; type: cell-based
T1 sequence (whole entry): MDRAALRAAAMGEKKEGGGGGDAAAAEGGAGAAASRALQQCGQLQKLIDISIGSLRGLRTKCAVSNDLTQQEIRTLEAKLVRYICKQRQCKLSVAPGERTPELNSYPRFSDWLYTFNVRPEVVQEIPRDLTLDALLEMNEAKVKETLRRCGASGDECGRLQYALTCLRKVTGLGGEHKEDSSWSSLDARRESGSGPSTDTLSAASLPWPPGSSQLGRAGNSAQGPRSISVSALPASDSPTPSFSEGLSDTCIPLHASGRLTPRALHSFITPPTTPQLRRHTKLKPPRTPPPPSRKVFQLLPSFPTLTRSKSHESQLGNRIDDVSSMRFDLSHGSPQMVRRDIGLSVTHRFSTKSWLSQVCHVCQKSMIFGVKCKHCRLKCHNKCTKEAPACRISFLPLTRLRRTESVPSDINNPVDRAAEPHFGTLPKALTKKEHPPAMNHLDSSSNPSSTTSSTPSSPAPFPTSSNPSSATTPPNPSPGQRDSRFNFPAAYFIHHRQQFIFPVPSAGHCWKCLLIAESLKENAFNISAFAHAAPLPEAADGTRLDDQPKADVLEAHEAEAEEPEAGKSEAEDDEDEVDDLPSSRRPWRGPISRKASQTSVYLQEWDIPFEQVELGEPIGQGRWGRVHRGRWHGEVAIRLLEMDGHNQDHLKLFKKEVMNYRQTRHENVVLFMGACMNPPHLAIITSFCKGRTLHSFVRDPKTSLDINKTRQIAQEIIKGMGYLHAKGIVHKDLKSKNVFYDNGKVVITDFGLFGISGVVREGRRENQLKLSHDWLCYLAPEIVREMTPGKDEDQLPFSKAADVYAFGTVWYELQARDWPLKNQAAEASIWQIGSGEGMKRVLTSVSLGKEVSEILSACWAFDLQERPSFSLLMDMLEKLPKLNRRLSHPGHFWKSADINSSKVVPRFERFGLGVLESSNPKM

[2] = target: Interleukin-1 receptor-associated kinase 1 (Homo sapiens) (UniProt P51617); experiment: Inhibition of IRAK1 Lys2 labeling site in human A-375 cells at 0.05 uM by KiNativ Profiling analysis relative to control; type: cell-based
Sequence of Interleukin-1 receptor-associated kinase 1 (Homo sapiens) (P51617 whole entry, looked up): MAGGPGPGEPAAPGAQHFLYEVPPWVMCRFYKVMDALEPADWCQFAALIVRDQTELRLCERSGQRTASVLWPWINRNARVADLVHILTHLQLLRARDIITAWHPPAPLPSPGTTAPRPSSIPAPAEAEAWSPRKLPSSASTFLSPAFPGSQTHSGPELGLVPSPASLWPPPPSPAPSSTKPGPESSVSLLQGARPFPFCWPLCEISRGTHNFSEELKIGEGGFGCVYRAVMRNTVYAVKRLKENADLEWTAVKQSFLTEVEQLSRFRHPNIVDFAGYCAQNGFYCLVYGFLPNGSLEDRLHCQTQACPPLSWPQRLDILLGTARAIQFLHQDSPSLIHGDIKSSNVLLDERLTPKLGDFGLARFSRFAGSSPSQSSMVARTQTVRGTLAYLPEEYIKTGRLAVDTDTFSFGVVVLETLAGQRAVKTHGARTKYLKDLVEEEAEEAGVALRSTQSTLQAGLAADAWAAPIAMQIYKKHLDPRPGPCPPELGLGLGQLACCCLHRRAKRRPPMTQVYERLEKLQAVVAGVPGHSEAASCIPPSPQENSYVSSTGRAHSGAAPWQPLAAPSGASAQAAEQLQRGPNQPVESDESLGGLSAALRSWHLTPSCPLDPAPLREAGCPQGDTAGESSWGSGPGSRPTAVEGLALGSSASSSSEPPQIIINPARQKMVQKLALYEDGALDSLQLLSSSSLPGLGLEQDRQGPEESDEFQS

[3] = target: T2, Kinase suppressor of Ras 2 (Homo sapiens) (UniProt Q6VAB6); experiment: Inhibition of KSR2 ACT labeling site in human A-375 cells at 0.5 uM by KiNativ Profiling analysis relative to control; type: cell-based
T2 sequence (whole entry): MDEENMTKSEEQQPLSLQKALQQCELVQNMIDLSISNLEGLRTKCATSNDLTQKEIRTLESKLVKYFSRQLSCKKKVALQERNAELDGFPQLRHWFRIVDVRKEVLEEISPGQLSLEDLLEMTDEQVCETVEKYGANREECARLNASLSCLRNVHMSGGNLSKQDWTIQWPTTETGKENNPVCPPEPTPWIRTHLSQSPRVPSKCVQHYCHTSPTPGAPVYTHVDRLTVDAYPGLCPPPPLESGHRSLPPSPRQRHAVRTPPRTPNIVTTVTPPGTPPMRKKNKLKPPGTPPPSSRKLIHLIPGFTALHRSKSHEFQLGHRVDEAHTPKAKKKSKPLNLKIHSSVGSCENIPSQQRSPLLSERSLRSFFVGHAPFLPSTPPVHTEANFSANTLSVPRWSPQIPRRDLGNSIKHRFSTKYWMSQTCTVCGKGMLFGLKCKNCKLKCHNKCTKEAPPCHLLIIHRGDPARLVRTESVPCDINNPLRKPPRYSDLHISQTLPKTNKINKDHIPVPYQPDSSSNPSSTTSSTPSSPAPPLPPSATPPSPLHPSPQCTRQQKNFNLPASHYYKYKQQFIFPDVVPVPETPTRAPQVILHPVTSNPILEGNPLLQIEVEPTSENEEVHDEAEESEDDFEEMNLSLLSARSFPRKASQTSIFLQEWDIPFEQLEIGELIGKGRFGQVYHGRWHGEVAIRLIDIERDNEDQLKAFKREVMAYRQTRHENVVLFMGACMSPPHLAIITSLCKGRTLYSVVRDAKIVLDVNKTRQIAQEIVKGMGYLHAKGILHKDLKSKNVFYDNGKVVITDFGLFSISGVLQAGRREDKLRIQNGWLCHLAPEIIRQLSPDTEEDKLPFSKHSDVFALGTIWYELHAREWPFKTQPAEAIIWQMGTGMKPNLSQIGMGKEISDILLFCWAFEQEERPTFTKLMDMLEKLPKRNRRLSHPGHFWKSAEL

[4] = target: T3, Mitogen-activated protein kinase kinase kinase kinase 2 (Homo sapiens) (UniProt Q12851); experiment: Inhibition of MAP4K2 Lys1 labeling site in human Huh-7 cell lysate at 1 uM by KiNativ Profiling analysis relative to control; type: subcellular
T3 sequence (whole entry): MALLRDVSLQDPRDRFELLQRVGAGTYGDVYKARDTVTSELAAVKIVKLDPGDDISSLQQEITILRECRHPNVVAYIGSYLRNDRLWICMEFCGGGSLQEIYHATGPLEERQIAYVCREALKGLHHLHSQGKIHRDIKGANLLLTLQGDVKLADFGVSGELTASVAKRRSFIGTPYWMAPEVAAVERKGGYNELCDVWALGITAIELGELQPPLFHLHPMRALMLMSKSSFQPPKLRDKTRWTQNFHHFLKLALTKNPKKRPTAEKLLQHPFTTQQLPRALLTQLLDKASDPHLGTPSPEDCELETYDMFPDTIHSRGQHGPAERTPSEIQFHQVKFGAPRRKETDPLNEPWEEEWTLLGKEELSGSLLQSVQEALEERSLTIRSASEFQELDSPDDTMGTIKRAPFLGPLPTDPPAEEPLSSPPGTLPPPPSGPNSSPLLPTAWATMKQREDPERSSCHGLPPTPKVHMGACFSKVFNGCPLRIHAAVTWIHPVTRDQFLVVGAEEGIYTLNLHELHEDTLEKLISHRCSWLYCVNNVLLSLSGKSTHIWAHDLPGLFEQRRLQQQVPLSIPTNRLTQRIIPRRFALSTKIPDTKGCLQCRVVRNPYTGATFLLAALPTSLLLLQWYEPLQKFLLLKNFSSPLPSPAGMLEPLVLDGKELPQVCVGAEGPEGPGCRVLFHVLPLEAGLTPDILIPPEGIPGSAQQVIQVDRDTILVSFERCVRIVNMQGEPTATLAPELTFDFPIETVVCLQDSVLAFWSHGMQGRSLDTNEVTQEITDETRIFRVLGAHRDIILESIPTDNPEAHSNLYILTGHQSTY

| Compound | inhibition [1] [%] | inhibition [2] [%] | inhibition [3] [%] | inhibition [4] [%] |
| --- | --- | --- | --- | --- |
| CCN1CCN(Cc2ccc(NC(=O)c3ccc(C)c(Oc4ccnc5[nH]ccc45)c3)cc2C(F)(F)F)CC1 | 8.5 | 14.2 | 8.5 | – |
| CNc1cc(Oc2cc(C(=O)Nc3cc(-n4cnc(C)c4)cc(C(F)(F)F)c3)ccc2C)ncn1 | – | – | – | 79.7 |
| CNc1cc(Oc2cc(C(=O)Nc3cc(N4CCN(C)CC4)cc(C(F)(F)F)c3)ccc2C)ncn1 | – | – | – | 85.3 |
| CCN1CCN(Cc2ccc(NC(=O)c3ccc(C)c(/C=C/c4cnc5[nH]ccc5c4OC)c3)cc2C(F)(F)F)CC1 | 16.8 | -9.4 | 16.8 | – |

Source: ChEMBL document CHEMBL5696442, “Discovery of type II inhibitors of TGFβ-activated kinase 1 (TAK1) and mitogen-activated protein kinase kinase kinase kinase 2 (MAP4K2)” (J Med Chem, 2015)
